From patent US5571524A, “Agent for curing ischemic myocardial disease” (Unitika Ltd., priority 1994, dated 1996) come the findings set out here.

Assay type in all cases: in vivo
Test [1] concerns Mongrel dogs. Kind of test: Coronary blood flow increase effect, nonischemic condition. The note with it: for Coronary blood flow: 8-SPT and/or L-NAME alone, before Ap4A, N = 1 - 2. The protocol: (§1) Mongrel dogs weighing 18-22 kg were anesthetized with pentobarbital sodium (30 mg/kg). The trachea was intubated, and the dog was ventilated with room air with oxygen. The chest was opened through the left fifth intercostal space, and the heart was suspended in a pericardial cradle. The left anterior descending coronary artery was cannulated and perfused with blood via the carotid artery through an extracorporeal bypass tube after heparinization (500 units/kg). Coronary blood flow (CBF) was measured with an electromagnetic flow probe attached to the bypass tube, and coronary perfusion pressure (CPP) was monitored at the tip of the coronary arterial cannula. A small, short collecting tube was cannulated into a small coronary vein near the center of the perfused area to sample coronary venous blood. The drained venous blood was collected in a reservoir placed at the level of the left atrium. A high fidelity of left ventricular pressure and its first derivative were measured by a micromanometer (model P-5, Konigsberg Instruments, Inc., Pasadena, Calif.) placed in the left ventricular cavity through the apex. A pair of ultrasonic crystals was placed in the center of the perfused area about 1 cm apart to measure myocardial segment length with an ultrasonic dimension gauge (5 MHz, Schuessler, Cardiff by the Sea, Calif.). End-diastolic length (EDL) was determined at the R wave of the electrocardiogram, and end-systolic length (ESL) was determined at the minimal dP/dt. Fractional shortening was calculated by (EDL-ESL)/EDL as an index of myocardial contractility of the perfused area.
After stabilization, a physiological saline solution […], with the dosage thereof increased to 0.5, 1, 2, 4 and 8 μg/kg/min, and the changes in coronary blood flow were measured in order to assess the coronary blood flow increase effect of Ap4A.
8-sulfophenyltheophylline (hereinafter referred to as 8-SPT) serving as adenosine P1 receptor antagonist with a dose of 25 μg/kg/min was tested.
The above test was also repeated by replacing 8-SPT with N^G -nitro-L-arginine methyl ester (hereinafter referred to as L-NAME) serving as an endothelial-cell-induced nitric oxide (NO) synthesis inhibitor with a dose of 3 μg/kg/min(ic).
The above test was then repeated using 8-SPT and L-NAME in combination.

Test [2] deals with Mongrel dogs. The test can be described thus: Lactate extraction ratio and pH of venous blood during ischemia. The note with it: for pH of venous blood / Lactate extraction ratio: ischemia (1/3 blood flow); for pH of venous blood: control 7.46, 1/3 control 7.23; for Lactate extraction ratio: control 26.5, 1/3 control -67.9. The protocol:
as §1
Namely, the lactate extraction ratio was obtained by coronary arteriovenous difference in lactate concentration multiplied by 100 and divided by arterial lactate concentration.
(§2) After stabilization, CPP was decreased with partial occlusion of the bypass tube to the left anterior descending coronary artery such that CBF decreased to one third of the control flow. The low CPP was maintained during this test.
(§3) Blood sampling from coronary veins and coronary arteries was conducted. Then the intracoronary administration of Ap4A was stopped. The lowered coronary perfusion pressure was further maintained for 10 minutes.
(§4) The above test was repeated by replacing Ap4A with adenosine with the dosage thereof being changed to 4, 8 and 16 μg/kg/min.
As mentioned previously, in the above-mentioned experimental systems, lactate extraction ratio and pH of venous blood were measured at the time of the intracoronary administration of Ap4A and also at the time of the intracoronary administration of adenosine.

Test [3] relates to Mongrel dogs. Kind of test: Amelioration of myocardial ischemia: coronary blood flow, fractional shortening and perfusion pressure during factitious 1/3 blood flow. The note with it: for Myocardial fractional shortening / Coronary blood flow / Coronary perfusion pressure: ischemia (1/3 blood flow); for Myocardial fractional shortening: control 26.9, 1/3 control 5.3; for Coronary blood flow: control 91.3, 1/3 control 21.2; for Coronary perfusion pressure: control 93.0, 1/3 control 57.0. The procedure: as §1, §2, §3, §4

The mark [4] stands for this setting: adenosine 4 μg/kg/min intracoronary.
Setting [5] is: adenosine 8 μg/kg/min intracoronary.
[6] abbreviates: adenosine 16 μg/kg/min intracoronary.

Turning to `Cn1c(=O)c2[nH]c(-c3ccc(S(=O)(=O)O)cc3)nc2n(C)c1=O` [8-SPT, 8-sulfophenyltheophylline, reference compound], in the test with Mongrel dogs [1] (8-SPT 25 μg/kg/min), the “inhibition of the effect of adenosine” value is on record as “completely inhibited”. In addition, the Coronary blood flow in the test with Mongrel dogs [1] is 93.7 ml/100 g/min.

On to `Nc1ncnc2c1ncn2[C@@H]1O[C@H](CO)[C@@H](O)[C@H]1O` [Adenosine, adenosine], for which, in the test with Mongrel dogs [2] (ischemia), the “amelioration of lactate extraction ratio and pH” value was “no such amelioration effects”. Further, the “pH of venous blood” value with Mongrel dogs [2] (setting [4]) was 7.19; with Mongrel dogs [2] (setting [5]), 7.25; in the test with Mongrel dogs [2] (setting [6]) it was 7.22. For the same molecule, the Lactate extraction ratio in the test with Mongrel dogs [2] (setting [4]) is recorded as -73.2%; in the test on Mongrel dogs [2] (setting [5]) it was -69.8%; with Mongrel dogs [2] (setting [6]) it was -73.2%. The Myocardial fractional shortening with Mongrel dogs [3] (adenosine 4 μg/kg/min) worked out at 5.9%; with Mongrel dogs [3] (adenosine 8 μg/kg/min), 3.9%; in the test with Mongrel dogs [3] (adenosine 16 μg/kg/min) it was 5.3%. The Coronary blood flow with Mongrel dogs [3] (adenosine 4 μg/kg/min), in the test with Mongrel dogs [3] (adenosine 8 μg/kg/min) and in the test on Mongrel dogs [3] (adenosine 16 μg/kg/min) was 18.2 ml/100 g/min in each case. Also, the Coronary perfusion pressure with Mongrel dogs [3] (adenosine 4 μg/kg/min), with Mongrel dogs [3] (adenosine 8 μg/kg/min) and with Mongrel dogs [3] (adenosine 16 μg/kg/min) was 56.0 mmHg each time. Moreover, the “changes in coronary blood flow and myocardial fractional shortening” value in the test on Mongrel dogs [3] (ischemia, adenosine 4, 8 and 16 μg/kg/min) is “no substantial changes in coronary blood flow and myocardial fractional shortening”. In addition, in the test with Mongrel dogs [3] (mongrel dogs in a state of excessive ischemia), the “amelioration effect on myocardial ischemia” value is “unaffected”.

As to `COC(=O)[C@@H](N)CCCNC(=N)N[N+](=O)[O-]` [L-NAME, N^G -nitro-L-arginine methyl ester, reference compound], the Coronary blood flow with Mongrel dogs [1] is 90.3 ml/100 g/min.
